Source: patent publication US9458137B2, “Substituted indol-5-ol derivatives and their therapeutical applications” (NantBioScience, Inc., priority 2012, dated 2016)

These compounds were tested on abl kinase (assay: abl kinase inhibition assay).
Format: biochemical
In the case of `Cc1cc2c(F)c(Oc3nc(Nc4cc(C5CC5)[nH]n4)cc(N4CCC(N(C)C)C4)n3)ccc2[nH]1` (stereo not shown) [Example 17], the “% Inhibition @1 μM Abl” value is reported as 108%.
In the case of `Cc1cc2c(F)c(Oc3nc(Nc4cc(C5CC5)[nH]n4)cc(N4CCNC(CO)C4)n3)ccc2[nH]1` (stereo not shown) [Example 43], the “% Inhibition @1 μM Abl” value is reported as 111%.
With `C/C=C/c1cc(Nc2cc(N3CCN(C(C)=O)CC3)nc(Oc3ccc4[nH]c(C)cc4c3F)n2)n[nH]1` [Example 56] the “% Inhibition @1 μM Abl” value was 111%.
With `Cc1cc2c(F)c(Oc3nc(Nc4cc(C5CC5)[nH]n4)cc(N4C[C@@H](C)N[C@@H](C)C4)n3)ccc2[nH]1` [Example 20] the “% Inhibition @1 μM Abl” value was 107%.
With `CC(=O)N1CCN(c2cc(Nc3cc(C4CC4)[nH]n3)nc(Oc3ccc4[nH]c(C)cc4c3F)n2)CC1` [Example 18] the “% Inhibition @1 μM Abl” value was 107%.
For `Cc1cc2c(F)c(Oc3nc(Nc4cc(C5CC5)[nH]n4)cc(N4CCOCC4)n3)ccc2[nH]1` [Example 13], the “% Inhibition @1 μM Abl” value was 112%.
In the case of `Cc1cc2c(F)c(Oc3nc(Nc4cc(C5CC5)[nH]n4)cc(N4CCN(CCF)CC4)n3)ccc2[nH]1` [Example 45], the “% Inhibition @1 μM Abl” value is reported as 107%.
With `C/C=C/c1cc(Nc2cc(N3CCN(C)CC3)nc(Oc3ccc4[nH]c(C)cc4c3Cl)n2)n[nH]1` [Example 112] the “% Inhibition @1 μM Abl” value was 113%.
In the case of `Cc1cc2c(F)c(Oc3nc(Nc4cc(C5CC5)[nH]n4)cc(N4CCN(CCN(C)C)CC4)n3)ccc2[nH]1` [Example 42], the “% Inhibition @1 μM Abl” value is reported as 110%.
`C/C=C/c1cc(Nc2cc(N3CCS(=O)(=O)CC3)nc(Oc3ccc4[nH]c(C)cc4c3F)n2)n[nH]1` [Example 57] was tested, and the “% Inhibition @1 μM Abl” value was 111%.
With `C/C=C/c1cc(Nc2cc(N3CCC(O)CC3)nc(Oc3cc(F)c4[nH]c(C)cc4c3F)n2)n[nH]1` [Example 95] the “% Inhibition @1 μM Abl” value was 110%.
With `Cc1cc2c(F)c(Oc3nc(Nc4cc(C5CC5)[nH]n4)cc(N4CCOCC4)n3)ccc2n1C` [Example 123] the “% Inhibition @1 μM Abl” value was 114%.
For `C/C=C/c1cc(Nc2cc(N3CCC(OC)CC3)nc(Oc3cc(F)c4[nH]c(C)cc4c3F)n2)n[nH]1` [Example 96], the “% Inhibition @1 μM Abl” value was 110%.
`C/C=C/c1cc(Nc2cc(N3CCC(O)CC3)nc(Oc3ccc4[nH]c(C)cc4c3F)n2)n[nH]1` [Example 59] was tested, and the “% Inhibition @1 μM Abl” value was 112%.
For `COC1CCN(c2cc(Nc3cc(C4CC4)[nH]n3)nc(Oc3ccc4[nH]c(C)cc4c3F)n2)C1` (stereo not shown) [Example 16], the “% Inhibition @1 μM Abl” value was 103%.
`Cc1cc2c(F)c(Oc3nc(Nc4cc(C5CC5)[nH]n4)cc(N4CCNC(=O)C4)n3)ccc2[nH]1` [Example 19] was tested, and the “% Inhibition @1 μM Abl” value was 108%.
In the case of `C/C=C/c1cc(Nc2cc(N3CCC(N(CC)CC)C3)nc(Oc3ccc4[nH]c(C)cc4c3F)n2)n[nH]1` (stereo not shown) [Example 62], the “% Inhibition @1 μM Abl” value is reported as 111%.
For `C/C=C/c1cc(Nc2cc(N3CCC(OC)C3)nc(Oc3ccc4[nH]c(C)cc4c3F)n2)n[nH]1` (stereo not shown) [Example 60], the “% Inhibition @1 μM Abl” value was 111%.
With `C/C=C/c1cc(Nc2cc(N3CCN(CCF)CC3)nc(Oc3ccc4[nH]c(C)cc4c3F)n2)n[nH]1` [Example 74] the “% Inhibition @1 μM Abl” value was 111%.
In the case of `C/C=C/c1cc(Nc2cc(N3CCC(OC)C3)nc(Oc3cc(F)c4[nH]c(C)cc4c3F)n2)n[nH]1` (stereo not shown) [Example 93], the “% Inhibition @1 μM Abl” value is reported as 111%.
For `Cc1cc(Nc2cc(N3CCOCC3)nc(Oc3cc(F)c4[nH]c(C)cc4c3F)n2)n[nH]1` [Example 107], the “% Inhibition @1 μM Abl” value was 111%.
With `Cc1cc2c(F)c(Oc3nc(Nc4cc(C5CC5)[nH]n4)cc(N4CCNCC4)n3)ccc2[nH]1` [Example 11, N-(5-cyclopropyl-1H-pyrazol-3-yl)-2-((4-fluoro-2-methyl-1H-indol-5-yl)oxy)-6-(piperazin-1-yl)pyrimidin-4-amine] the “% Inhibition @1 μM Abl” value was 111%.
`Cc1cc2c(F)c(Oc3nc(Nc4cc(C5CC5)[nH]n4)cc(N4CC(O)C4)n3)ccc2[nH]1` [Example 15] was tested, and the “% Inhibition @1 μM Abl” value was 108%.
For `COCC1CCN(c2cc(Nc3cc(C4CC4)[nH]n3)nc(Oc3ccc4[nH]c(C)cc4c3F)n2)C1` (stereo not shown) [Example 44], the “% Inhibition @1 μM Abl” value was 94%.
`C/C=C/c1cc(Nc2cc(N3CCOCC3)nc(Oc3cc(F)c4[nH]c(C)cc4c3F)n2)n[nH]1` [Example 89] was tested, and the “% Inhibition @1 μM Abl” value was 112%.
In the case of `Cc1cc2c(F)c(Oc3nc(Nc4cc(C5CC5)[nH]n4)cc(N4CCN(C)CC4)n3)ccc2n1C` [Example 122], the “% Inhibition @1 μM Abl” value is reported as 109%.
For `C/C=C/c1cc(Nc2cc(N3CCN(S(C)(=O)=O)CC3)nc(Oc3ccc4[nH]c(C)cc4c3F)n2)n[nH]1` [Example 55], the “% Inhibition @1 μM Abl” value was 110%.
`C/C=C/c1cc(Nc2cc(N3CCC(O)C3)nc(Oc3ccc4[nH]c(C)cc4c3F)n2)n[nH]1` (stereo not shown) [Example 61] was tested, and the “% Inhibition @1 μM Abl” value was 112%.
`Cc1cc2c(F)c(Oc3nc(Nc4cc(C5CC5)[nH]n4)cc(N4CCOC(CN)C4)n3)ccc2[nH]1` (stereo not shown) [Example 39] was tested, and the “% Inhibition @1 μM Abl” value was 110%.
With `Cc1cc2c(F)c(Oc3nc(Nc4cc(C5CC5)[nH]n4)cc(N4CCN(C)CC4)n3)ccc2[nH]1` [Example 10] the “% Inhibition @1 μM Abl” value was 112%.
In the case of `C/C=C/c1cc(Nc2cc(N3CCN(CCO)CC3)nc(Oc3cc(F)c4[nH]c(C)cc4c3F)n2)n[nH]1` [Example 88], the “% Inhibition @1 μM Abl” value is reported as 113%.
With `C/C=C/c1cc(Nc2cc(N3CCN(C)CC3)nc(Oc3ccc4c(cc(C)n4C)c3F)n2)n[nH]1` [Example 120] the “% Inhibition @1 μM Abl” value was 115%.
With `C/C=C/c1cc(Nc2cc(N3CCN(S(C)(=O)=O)CC3)nc(Oc3cc(F)c4[nH]c(C)cc4c3F)n2)n[nH]1` [Example 98] the “% Inhibition @1 μM Abl” value was 111%.
With `Cc1cc(Nc2cc(N3CCNCC3)nc(Oc3cc(F)c4[nH]c(C)cc4c3F)n2)n[nH]1` [Example 106] the “% Inhibition @1 μM Abl” value was 109%.
In the case of `Cc1cc2c(F)c(Oc3nc(Nc4cc(C5CC5)[nH]n4)cc(N4CCNCC4)n3)cc(F)c2[nH]1` [Example 82], the “% Inhibition @1 μM Abl” value is reported as 106%.
With `Cc1cc(Nc2cc(N3CCN(CCO)CC3)nc(Oc3cc(F)c4[nH]c(C)cc4c3F)n2)n[nH]1` [Example 105] the “% Inhibition @1 μM Abl” value was 112%.
With `Cc1cc2c(F)c(Oc3nc(Nc4cc(C5CC5)[nH]n4)cc(N4CCN(S(C)(=O)=O)CC4)n3)ccc2[nH]1` [Example 23] the “% Inhibition @1 μM Abl” value was 108%.
